The values below come from ChEMBL document CHEMBL3217607, “Discovery and structural modification of novel inhibitors of PTP1B inspired by the ACT fragment of scleritodermin A” (Medchemcomm, 2011).

Each structure is given as a SMILES string.

In assay [1] the target is T1, Tyrosine-protein phosphatase non-receptor type 1 (Homo sapiens, UniProt P18031).
T1 sequence (P18031 whole entry): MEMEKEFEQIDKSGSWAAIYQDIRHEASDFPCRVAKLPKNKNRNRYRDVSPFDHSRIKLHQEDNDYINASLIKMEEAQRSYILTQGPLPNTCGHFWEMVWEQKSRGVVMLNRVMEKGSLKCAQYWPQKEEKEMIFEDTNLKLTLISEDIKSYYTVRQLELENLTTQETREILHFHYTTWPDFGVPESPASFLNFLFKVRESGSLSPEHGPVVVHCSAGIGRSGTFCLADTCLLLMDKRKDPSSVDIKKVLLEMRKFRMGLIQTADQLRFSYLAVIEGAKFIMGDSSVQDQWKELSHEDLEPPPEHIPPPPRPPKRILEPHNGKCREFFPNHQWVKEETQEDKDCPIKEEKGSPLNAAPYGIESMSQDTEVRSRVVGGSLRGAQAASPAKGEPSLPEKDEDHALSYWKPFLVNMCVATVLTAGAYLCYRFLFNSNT
Briefly: Inhibition of GST-tagged PTP1B (unknown origin) using pNPP as substrate measured for 2 mins by spectrophotometry.

The target of assay [2] is T2, M-phase inducer phosphatase 2 (Homo sapiens, UniProt P30305).
T2 sequence (P30305 whole entry): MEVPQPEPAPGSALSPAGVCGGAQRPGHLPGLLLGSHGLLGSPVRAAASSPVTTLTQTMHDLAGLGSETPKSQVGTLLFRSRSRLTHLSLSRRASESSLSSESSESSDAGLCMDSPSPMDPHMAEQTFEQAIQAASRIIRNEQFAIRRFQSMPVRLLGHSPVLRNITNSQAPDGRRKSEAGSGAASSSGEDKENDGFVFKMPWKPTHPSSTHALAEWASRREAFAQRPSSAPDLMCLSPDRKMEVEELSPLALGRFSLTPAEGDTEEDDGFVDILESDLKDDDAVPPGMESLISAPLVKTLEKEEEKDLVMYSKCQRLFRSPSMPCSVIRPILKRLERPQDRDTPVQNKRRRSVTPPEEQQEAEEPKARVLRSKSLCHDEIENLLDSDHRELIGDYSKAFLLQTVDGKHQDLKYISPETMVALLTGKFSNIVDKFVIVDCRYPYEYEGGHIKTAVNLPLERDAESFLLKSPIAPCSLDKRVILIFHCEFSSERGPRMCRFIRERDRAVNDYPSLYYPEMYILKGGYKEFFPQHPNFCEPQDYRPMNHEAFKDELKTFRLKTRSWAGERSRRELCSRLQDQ
Briefly: Inhibition of CDC25B (unknown origin) using 3-O-Methylfluorescein phosphate as substrate preincubated for 3 mins followed by substrate addition.

Assay [3] deals with T3, Tyrosine-protein phosphatase non-receptor type 2 (Homo sapiens, UniProt P17706).
T3 sequence (P17706 whole entry): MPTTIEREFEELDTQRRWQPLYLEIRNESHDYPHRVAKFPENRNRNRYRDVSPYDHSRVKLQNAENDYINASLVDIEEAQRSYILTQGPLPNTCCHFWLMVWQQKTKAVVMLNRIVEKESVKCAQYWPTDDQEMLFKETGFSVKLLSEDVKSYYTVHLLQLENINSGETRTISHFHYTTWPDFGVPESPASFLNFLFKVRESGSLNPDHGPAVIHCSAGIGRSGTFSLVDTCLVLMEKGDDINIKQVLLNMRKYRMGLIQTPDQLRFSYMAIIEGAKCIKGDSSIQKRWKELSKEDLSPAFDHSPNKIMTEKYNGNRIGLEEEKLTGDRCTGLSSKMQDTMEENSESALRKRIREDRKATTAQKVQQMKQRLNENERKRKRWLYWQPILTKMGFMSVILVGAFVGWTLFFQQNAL
Briefly: Inhibition of TCPTP (unknown origin).

In assay [4] the target is T4, Tyrosine-protein phosphatase non-receptor type 11 (Homo sapiens, UniProt Q06124).
T4 sequence (Q06124 whole entry): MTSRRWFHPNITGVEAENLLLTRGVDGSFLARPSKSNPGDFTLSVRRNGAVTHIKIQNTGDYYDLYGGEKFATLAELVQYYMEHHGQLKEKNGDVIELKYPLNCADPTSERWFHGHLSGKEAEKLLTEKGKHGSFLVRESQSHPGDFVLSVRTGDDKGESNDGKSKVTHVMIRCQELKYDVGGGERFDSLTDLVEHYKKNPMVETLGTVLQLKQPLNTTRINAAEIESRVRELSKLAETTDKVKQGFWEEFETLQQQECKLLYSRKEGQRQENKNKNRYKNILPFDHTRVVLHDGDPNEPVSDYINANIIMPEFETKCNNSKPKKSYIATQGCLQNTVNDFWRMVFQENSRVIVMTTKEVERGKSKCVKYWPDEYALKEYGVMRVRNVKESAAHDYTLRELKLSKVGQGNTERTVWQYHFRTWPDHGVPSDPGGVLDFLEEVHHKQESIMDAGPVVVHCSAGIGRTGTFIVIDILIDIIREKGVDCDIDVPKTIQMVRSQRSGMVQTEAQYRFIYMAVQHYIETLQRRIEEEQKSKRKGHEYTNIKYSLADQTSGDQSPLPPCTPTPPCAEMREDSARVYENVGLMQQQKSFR
Briefly: Inhibition of SHP2 (unknown origin) using 3-O-Methylfluorescein phosphate as substrate preincubated for 3 mins followed by substrate addition.

For assay [5], the target named is Receptor-type tyrosine-protein phosphatase F (Homo sapiens, UniProt P10586). Briefly: Inhibition of LAR (unknown origin) using 3-O-Methylfluorescein phosphate as substrate preincubated for 3 mins followed by substrate addition.
Chain of Receptor-type tyrosine-protein phosphatase F (P10586 whole entry): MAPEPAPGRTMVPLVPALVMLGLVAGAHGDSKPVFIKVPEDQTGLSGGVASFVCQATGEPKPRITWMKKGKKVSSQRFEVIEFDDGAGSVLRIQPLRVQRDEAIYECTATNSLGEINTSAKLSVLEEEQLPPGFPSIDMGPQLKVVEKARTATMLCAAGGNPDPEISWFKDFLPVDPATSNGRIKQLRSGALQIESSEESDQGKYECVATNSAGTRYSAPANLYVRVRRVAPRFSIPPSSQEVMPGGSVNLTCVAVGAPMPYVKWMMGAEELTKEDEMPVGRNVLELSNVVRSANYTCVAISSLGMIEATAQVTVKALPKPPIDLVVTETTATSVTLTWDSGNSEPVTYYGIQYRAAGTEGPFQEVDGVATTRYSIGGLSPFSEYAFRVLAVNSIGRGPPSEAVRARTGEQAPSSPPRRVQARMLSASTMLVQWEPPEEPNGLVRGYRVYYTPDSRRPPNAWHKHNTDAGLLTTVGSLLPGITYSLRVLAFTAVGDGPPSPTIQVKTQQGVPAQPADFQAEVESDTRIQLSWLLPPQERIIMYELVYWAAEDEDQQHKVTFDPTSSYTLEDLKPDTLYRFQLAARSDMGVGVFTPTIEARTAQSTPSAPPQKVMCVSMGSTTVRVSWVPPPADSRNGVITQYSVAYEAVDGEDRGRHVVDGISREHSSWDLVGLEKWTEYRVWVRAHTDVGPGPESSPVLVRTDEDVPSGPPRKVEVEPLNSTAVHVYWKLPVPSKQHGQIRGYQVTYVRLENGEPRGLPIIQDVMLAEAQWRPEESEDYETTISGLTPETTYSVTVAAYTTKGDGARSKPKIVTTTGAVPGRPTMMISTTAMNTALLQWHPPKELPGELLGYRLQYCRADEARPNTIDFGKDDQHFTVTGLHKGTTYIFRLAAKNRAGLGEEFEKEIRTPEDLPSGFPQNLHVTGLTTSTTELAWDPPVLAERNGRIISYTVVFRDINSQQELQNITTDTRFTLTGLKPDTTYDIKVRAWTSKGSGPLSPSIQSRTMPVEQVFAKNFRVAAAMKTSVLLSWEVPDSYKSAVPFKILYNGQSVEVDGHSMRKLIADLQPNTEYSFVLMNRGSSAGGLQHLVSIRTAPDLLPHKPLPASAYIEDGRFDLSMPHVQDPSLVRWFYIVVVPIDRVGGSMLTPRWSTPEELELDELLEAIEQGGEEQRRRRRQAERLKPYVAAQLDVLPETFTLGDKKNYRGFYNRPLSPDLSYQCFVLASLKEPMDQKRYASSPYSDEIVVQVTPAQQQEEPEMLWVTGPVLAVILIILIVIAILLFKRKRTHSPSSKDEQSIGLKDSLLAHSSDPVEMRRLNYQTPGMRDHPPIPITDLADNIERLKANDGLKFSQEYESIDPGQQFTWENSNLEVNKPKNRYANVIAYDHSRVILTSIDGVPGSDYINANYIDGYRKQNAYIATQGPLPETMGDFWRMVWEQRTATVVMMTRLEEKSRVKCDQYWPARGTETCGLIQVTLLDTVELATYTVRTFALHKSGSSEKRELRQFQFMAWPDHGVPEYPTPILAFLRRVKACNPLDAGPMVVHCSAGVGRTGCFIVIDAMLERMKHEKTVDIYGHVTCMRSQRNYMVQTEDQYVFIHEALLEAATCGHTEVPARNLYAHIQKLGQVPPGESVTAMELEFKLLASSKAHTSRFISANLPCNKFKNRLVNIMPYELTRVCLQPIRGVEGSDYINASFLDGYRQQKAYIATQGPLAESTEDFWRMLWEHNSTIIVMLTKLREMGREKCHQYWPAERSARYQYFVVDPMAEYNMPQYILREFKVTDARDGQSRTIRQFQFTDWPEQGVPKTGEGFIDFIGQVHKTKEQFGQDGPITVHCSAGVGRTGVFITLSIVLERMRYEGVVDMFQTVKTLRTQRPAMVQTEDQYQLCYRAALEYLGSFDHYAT
In assay [6] the target is Tyrosine-protein phosphatase non-receptor type 6 (Homo sapiens, UniProt P29350). Briefly: Inhibition of SHP1 (unknown origin) using 3-O-Methylfluorescein phosphate as substrate preincubated for 3 mins followed by substrate addition.
Chain of Tyrosine-protein phosphatase non-receptor type 6 (P29350 whole entry): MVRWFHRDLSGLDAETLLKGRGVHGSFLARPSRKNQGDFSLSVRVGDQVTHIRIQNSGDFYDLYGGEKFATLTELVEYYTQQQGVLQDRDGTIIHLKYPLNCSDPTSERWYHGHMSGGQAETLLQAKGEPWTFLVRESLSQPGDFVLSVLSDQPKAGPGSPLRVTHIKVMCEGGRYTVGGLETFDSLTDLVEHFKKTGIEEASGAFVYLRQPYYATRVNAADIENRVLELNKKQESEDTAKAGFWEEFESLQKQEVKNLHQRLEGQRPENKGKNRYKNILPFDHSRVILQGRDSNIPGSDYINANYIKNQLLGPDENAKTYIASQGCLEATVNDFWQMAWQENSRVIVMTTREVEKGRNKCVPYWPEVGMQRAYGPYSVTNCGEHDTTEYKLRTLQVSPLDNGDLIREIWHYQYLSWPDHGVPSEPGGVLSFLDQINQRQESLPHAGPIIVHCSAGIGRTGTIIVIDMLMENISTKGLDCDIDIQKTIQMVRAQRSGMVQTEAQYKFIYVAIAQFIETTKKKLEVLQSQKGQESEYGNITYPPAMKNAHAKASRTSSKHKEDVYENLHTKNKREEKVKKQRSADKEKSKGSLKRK

Regarding `CCCCC(=O)N[C@@H](Cc1ccc(OCc2ccccc2)cc1)c1nc(/C=C(C)/C=C(/C)C(=O)OCC)cs1`, it took 11.4 µM to reach half-maximal inhibition in assay [1] (IC50).
The compound `CCOC(=O)CCCOC(=O)/C(C)=C\C(C)=C\c1csc(C(Cc2ccc(OCc3ccccc3)cc2)NC(=O)OC(C)(C)C)n1` (single isomer, unassigned) displayed an IC50 in assay [1] of 12.5 µM.
`CCOC(=O)/C(C)=C\C(C)=C\c1csc([C@H](Cc2ccc(OCc3ccccc3)cc2)NC(=O)c2ccc(F)cc2)n1` registered a 50% inhibitory concentration (IC50) in assay [1] of 8.92 µM.
In assay [1], `CCOC(=O)CNC(=O)/C(C)=C\C(C)=C\c1csc(C(Cc2ccc(OCc3ccccc3)cc2)NC(=O)OC(C)(C)C)n1` (single isomer, unassigned) returned an IC50 of 12.4 µM.
As for `C/C(=C/C(C)=C/c1csc([C@H](Cc2ccc(OCc3ccccc3)cc2)NC(=O)CCc2c[nH]c3ccccc23)n1)C(=O)OCC(=O)O`, the IC50 in assay [2] was 4.82 µM; in assay [3], 8.72 µM; in assay [4], 19.1 µM; in assay [5] it was more than 20 µM; in assay [1], 2.32 µM; in assay [6] it was 15 µM.
In the case of `CC(=O)N[C@@H](Cc1c[nH]c2ccccc12)C(=O)N[C@@H](Cc1ccc(OCc2ccccc2)cc1)c1nc(/C=C(C)/C=C(/C)C(=O)OCC(=O)O)cs1`, the IC50 in assay [2] is 5.41 µM; in assay [3], 17.7 µM; in assay [4], more than 20 µM; in assay [5], more than 20 µM; in assay [1], 3.01 µM; in assay [6], more than 20 µM.
In the case of `CCOC(=O)COC(=O)/C(C)=C\C(C)=C\c1csc(C(Cc2ccc(OCc3ccccc3)cc2)NC(=O)OC(C)(C)C)n1` (single isomer, unassigned), in assay [1], inhibition was half-maximal at 7.1 µM (IC50).
Still for that read-out and setting: with `CCOC(=O)/C(C)=C\C(C)=C\c1csc([C@H](Cc2ccc(OCc3ccccc3)cc2)NC(=O)C2CC2)n1` the figure was 19.9 µM.
As for `CCOC(=O)COC(=O)/C(C)=C\C(C)=C\c1csc([C@H](Cc2ccc(OCc3ccccc3)cc2)NC(=O)CCCc2c[nH]c3ccccc23)n1`, the IC50 was 2.55 µM in assay [2]; 12.7 µM in assay [3]; more than 20 µM in assay [4]; more than 20 µM in assay [5]; 3.05 µM in assay [1]; more than 20 µM in assay [6].
In assay [1], `CCOC(=O)/C(C)=C/C(C)=C\c1csc([C@H](Cc2ccc(OCc3ccccc3)cc2)NC(=O)C2CCCCC2)n1` yielded a half-inhibitory concentration (IC50) of 23.9 µM.
In assay [1], `CCOC(=O)/C(C)=C\C(C)=C\c1csc([C@H](Cc2ccc(OCc3ccccc3)cc2)NC(=O)C2CCCC2)n1` gave an IC50 of 17.9 µM.
`C/C(=C/C(C)=C/c1csc([C@H](Cc2ccc(OCc3ccccc3)cc2)NC(=O)[C@H](Cc2c[nH]c3ccccc23)NC(=O)OC(C)(C)C)n1)C(=O)OCC(=O)O`: the half-inhibitory concentration (IC50) in assay [2] is 3.38 µM; in assay [3], 4.53 µM; in assay [4] it was more than 20 µM; in assay [5], more than 20 µM; in assay [1] it was 1.6 µM; in assay [6] it was more than 20 µM.
On to `CCOC(=O)COC(=O)/C(C)=C\C(C)=C\c1csc([C@H](Cc2ccc(OCc3ccccc3)cc2)NC(=O)[C@H](Cc2c[nH]c3ccccc23)NC(C)=O)n1`, for which the IC50 was 2.4 µM in assay [2]; 8.84 µM in assay [3]; more than 20 µM in assay [4]; more than 20 µM in assay [5]; 2.08 µM in assay [1]; more than 20 µM in assay [6].
As for `CCOC(=O)/C(C)=C\C(C)=C\c1csc([C@H](Cc2ccc(OCc3ccccc3)cc2)NC(=O)C2CCCCC2)n1`, the IC50 in assay [2] was 3.92 µM; in assay [3], 15.6 µM; in assay [4], more than 20 µM; in assay [5], more than 20 µM; in assay [1], 9.32 µM; in assay [6], more than 20 µM.
For the compound `C/C(=C/C(C)=C/c1csc([C@H](Cc2ccc(OCc3ccccc3)cc2)NC(=O)Cc2c[nH]c3ccccc23)n1)C(=O)OCC(=O)O`, the IC50 in assay [2] was 4.88 µM; in assay [3], 9.98 µM; in assay [4], more than 20 µM; in assay [5], more than 20 µM; in assay [1] it was 3.68 µM; in assay [6] it was more than 20 µM.
Compound `CCOC(=O)c1csc([C@H](Cc2ccc(OCc3ccccc3)cc2)NC(=O)C2CCCCC2)n1` registered an IC50 in assay [1] of more than 40 µM.
The compound `CCOC(=O)/C(C)=C\C(C)=C\c1csc([C@H](Cc2ccc(OCc3ccccc3)cc2)NC(=O)C(C)C)n1` displayed an IC50 in assay [1] of 16.1 µM.
In the case of `CCOC(=O)CCCCOC(=O)/C(C)=C\C(C)=C\c1csc(C(Cc2ccc(OCc3ccccc3)cc2)NC(=O)OC(C)(C)C)n1` (single isomer, unassigned), in assay [1], the 50% inhibitory concentration (IC50) was found to be 9.66 µM.
In the case of `CCOC(=O)COC(=O)/C(C)=C\C(C)=C\c1csc([C@H](Cc2ccc(OCc3ccccc3)cc2)NC(=O)Cc2c[nH]c3ccccc23)n1`, the IC50 in assay [2] was 2.83 µM; in assay [3], 14 µM; in assay [4], more than 20 µM; in assay [5], more than 20 µM; in assay [1] it was 5.94 µM; in assay [6], more than 20 µM.
On to `CCOC(=O)COC(=O)/C(C)=C\C(C)=C\c1csc([C@H](Cc2ccc(OCc3ccccc3)cc2)NC(=O)[C@H](Cc2c[nH]c3ccccc23)NC(=O)OC(C)(C)C)n1`, for which the concentration for half-maximal inhibition (IC50) in assay [1] was 5.6 µM.
In the case of `CCOC(=O)/C(C)=C\C(C)=C\c1csc([C@H](Cc2ccc(OCc3ccccc3)cc2)NC(=O)c2ccccc2)n1`, the IC50 in assay [1] is more than 36 µM.
Consider `CCOC(=O)/C(C)=C\C(C)=C\c1csc([C@H](Cc2ccc(OCc3ccccc3)cc2)NC(=O)c2cc3ccccc3s2)n1`, for which, in assay [1], it took 9.44 µM to reach half-maximal inhibition (IC50).
As for `CCOC(=O)/C(C)=C\C(C)=C/c1csc([C@H](Cc2ccc(OCc3ccccc3)cc2)NC(=O)C2CCCCC2)n1`, the IC50 in assay [1] was found to be 13 µM.
As for `C=CCOC(=O)N[C@@H](COC(=O)/C(C)=C\C(C)=C\c1csc([C@H](Cc2ccc(OCc3ccccc3)cc2)NC(=O)OC(C)(C)C)n1)C(=O)N1CCC[C@H]1C(=O)OC(C)(C)C`, the IC50 in assay [3] stood at 3.95 µM; in assay [1], 4.42 µM.
As for `CCOC(=O)/C(C)=C\c1csc([C@H](Cc2ccc(OCc3ccccc3)cc2)NC(=O)C2CCCCC2)n1`, the concentration for half-maximal inhibition (IC50) in assay [1] is more than 40 µM.
In the case of `CCOC(=O)/C(C)=C/c1csc([C@H](Cc2ccc(OCc3ccccc3)cc2)NC(=O)C2CCCCC2)n1`, the IC50 in assay [1] is more than 40 µM.
Take `CCOC(=O)C(C)CC(C)Cc1csc([C@H](Cc2ccc(OCc3ccccc3)cc2)NC(=O)C2CCCCC2)n1` (stereo partly specified): the IC50 in assay [1] is more than 40 µM.
In the case of `COC(=O)CCNC(=O)/C(C)=C\C(C)=C\c1csc(C(Cc2ccc(OCc3ccccc3)cc2)NC(=O)OC(C)(C)C)n1` (single isomer, unassigned), the half-maximal inhibitory concentration (IC50) in assay [1] is 15.9 µM.
Still for that read-out and setting: with `CCOC(=O)/C(C)=C/C(C)=C/c1csc([C@H](Cc2ccc(OCc3ccccc3)cc2)NC(=O)C2CCCCC2)n1` the figure was 19 µM.
Compound `CCOC(=O)/C(C)=C\C(C)=C\c1csc([C@H](Cc2ccc(OCc3ccccc3)cc2)NC(=O)c2ccco2)n1` yielded an IC50 in assay [1] of 18 µM.

Broadly, the IC50 is the point on the concentration scale where inhibition reaches its midpoint. A high value points to weaker potency in that assay.
